Experimental data taken from paper PMC7830597, “Derivatives of Tenuazonic Acid as Potential New Multi-Target Anti-Alzheimer’s Disease Agents” (Biomolecules, 2021).
Marks after values point to notes of the source that are not given here.

What was measured:
Type in all cases: physicochemical
[1] = Metal complexation, Cu(II)/L system; conditions: for log β(CumHhLl): spectrophotometric, 15% w/w DMSO/water
Description: (§1) The chelating ability of compound 1 towards Fe(III), Cu(II) and Zn(II) was evaluated through the determination of the global formation constants of the complexes via pH-potentiometric and spectrophotometric titrations of the respective 1:1, 1:2 and 1:3 M/L systems in 15% w/w DMSO/water. The fitting analysis of the respective pH-potentiometric curves was done via Hyperquad 2008 [36] while that of the spectrophotometric absorption spectra was performed using Psequad, and the found equilibrium models are presented in Table 2. Compound 1 was chosen because of its better profile after preliminary assays (i.e., good AChE inhibition and antioxidant activity, as well as good ability to inhibit Cu^2+-induced Aβ aggregation).
(§2) To the best of our knowledge, the determination of stability formation constants of the complexes with TA has not yet been done and so the herein calculated values for compound 1 cannot be compared with those from the literature. The metal complexation equilibrium models of compound 1 were determined by the following process: for the Fe/L and Cu/L systems, only spectrophotometric data was used due to the better quality of the experimental results obtained [the 1:1 titration (e.g., Figure 7)] allowed the determination of the stability constant corresponding to the ML species and then this value, as well as the respective spectra, was introduced in the fitting of Fe/L 1:3 or Cu/L 1:2 data]; for the Zn/L system, potentiometric data was used. For the found metal complex models contained in Table 2, MH-2L, MH-1L2 and MH-2L2 correspond to mixed ligand-hydroxo metal complexes.
(§3) Titrations of the selected compound 1, alone or in the presence of the metal ions, were accomplished in a 15% w/w DMSO/H2O medium, at T = 25.0 ± 0.1 °C and ionic strength (I) 0.1 M KCl, by using 0.1 M KOH as titrant. Both glass and Ag/AgCl reference electrodes were previously conditioned in different DMSO/H2O mixtures of increasing DMSO % composition and the response of the glass electrode was evaluated by strong acid–strong base (HCl/KOH) calibrations with the determination of the Nernst parameters by Gran’s method. […] The spectrophotometric measurements were carried out in a 250–320 nm wavelength range at pH ca 2.5-8.0. Under the stated experimental conditions, the pKw value (13.6) was determined and subsequently used in the computations. The stepwise protonation constants of the ligands, Ki = [HiL]/[Hi-1L][H], and the overall metal–complex stability constants, β (MmHhL1) = [MmHhLl]/[M]^m[H]^h[L]^l, were calculated by fitting the pH-potentiometric and spectrophotometric data with, respectively, Hyperquad 2008 [36] and Psequad programs. The metal hydrolysis model was determined under the defined experimental conditions (I = 0.1 M KCl, 15% w/w DMSO/H2O, T = 25.0 ± 0.1 °C) and the following values of stability constants were included in the fitting of the experimental data towards the equilibrium models related to the Fe(III)/L, Cu(II)/L and Zn(II)/L systems: log β (FeH-1) = −1.79, log β (FeH-2) = −4.9, log β (FeH-4) = −20.0; log β (Cu2H-2) = −9.5; log β (ZnH-1) = −8.6, log β (ZnH-3) = −27.2, log β (Zn2H-1) = −8.6. The species distribution curves were obtained with the Hyss program.

[2] = Metal complexation, Zn(II)/L system; conditions: for log β(ZnmHhLl): potentiometric, 15% w/w DMSO/water
Description: as §1
as §2, with “For the found metal complex models contained in Table 2, MH-2L, MH-1L2 and MH-2L2 correspond to mixed ligand-hydroxo metal complexes.” left out
Titrations of the selected compound 1, alone or in the presence of the metal ions, were accomplished in a 15% w/w DMSO/H2O medium, at T = 25.0 ± 0.1 °C and ionic strength (I) 0.1 M KCl, by using 0.1 M KOH as titrant. Both glass and Ag/AgCl reference electrodes were previously conditioned in different DMSO/H2O mixtures of increasing DMSO % composition and the response of the glass electrode was evaluated by strong acid–strong base (HCl/KOH) calibrations with the determination of the Nernst parameters by Gran’s method. […]

[3] = Metal complexation, Fe(III)/L system; conditions: for log β(FemHhLl): spectrophotometric, 15% w/w DMSO/water
Description: as §1, §2, §3

[4] = Solubility in water
[5] = pH 7.4, CL/CM = 10, CM = 10^−6 M

SMILES: CCOC(=O)C1=C(O)C(C(C)C)NC1=O (centres unmarked) [Compound 1, Ethyl 4-hydroxy-5-isopropyl-2-oxo-2,5-dihydro-1H-pyrrole-3-carboxylate]
- Kd ([1]; calculated at pH 7.4, read-out: conditional dissociation constant (K’d) for the copper complex): 83 µM
- pCu (pM = −log[M]) [1, 5]: 11.6
- log β(CumHhLl) ([1]; species (1-12)): 6.56(6) ^d
- log β(CumHhLl) ([1]; species (1-21)): −4.15(7) ^d
- log β(CumHhLl) ([1]; species (101)): 4.08(8) ^d
- pZn (pM = −log[M]) [2, 5]: 6.0
- log β(ZnmHhLl) ([2]; species (1-21)): −11.75(5) ^c
- log β(ZnmHhLl) ([2]; species (101)): 3.16(8) ^c
- pFe (pM = −log[M]) [3, 5]: 16.6
- log β(FemHhLl) ([3]; species (1-22)): 5.83(8) ^d
- log β(FemHhLl) ([3]; species (101)): 9.46(7) ^d
- log β(FemHhLl) ([3]; species (102)): 14.30(7) ^d
- log β(FemHhLl) ([3]; species (103)): 19.4(1) ^d
- solubility in water [4]: insoluble in water
